In BindingDB's records for doi:10.1021/acs.jnatprod.0c00921 (Bc Cancer, 2021):

Assay: Inhibition of R1881-stimulated AR transcription driven human LNCaP cells proliferation preincubated for 1 hr followed by R1881 addition and measured after 4 days by Alamar blue assay

CCC(=O)N[C@H](C[C@H](C)C(Cl)(Cl)Cl)C(=O)N1C(=O)C=C(OC)[C@@H]1C[C@H](C)C(Cl)Cl
IC50: 14 µM
